According to patent publication US7157083B2, “Compositions and methods for treating retroviral infections” (priority 1998, dated 2007):
Like-named read-outs stand apart in the source and are kept apart here.

Experiments:
HIV-1 [1] = conditions: for % Control, Sum / Mean RT, Sum: Sum over 20, 10, 5 mg/mL
Method: Reverse transcriptase (RT) activity was measured in cell-free supernatants. Tritiated thymidine triphosphate (NEN) (TTP) was resuspended in distilled H2O at […]. Poly rA and oligo dT were prepared as a stock solution which was kept at −20° C. The RT reaction buffer was prepared fresh on a daily basis and consists of 125 μL 1.0 M EGTA, 125 μL d H2O, 110 μL 10% SDS, 50 μL 1.0 M Tris (pH 7.4), 50 μL 1.0 M DTT, and 40μ1.0 M MgCl2. These three solutions were mixed together in a ratio of 2 parts TTP, 1 part poly rA:oligo dT, and 1 part reaction buffer. Ten microliters of this reaction mixture was placed in a round bottom microtiter plate and 15 μL of virus containing supernatant was added and mixed. The plate was incubated at 37° C. in a water bath with a solid support to prevent submersion of the plate and incubated for 60 minutes. Following reaction, the reaction volume was spotted onto pieces of DE81 paper, washed 5 times for 5 minutes each in a 5% sodium phosphate buffer, 2 times for 1 minute each in distilled water, 2 times for 1 minute each in 70% ethanol, and then dried. Opti-Fluor O was added to each sample and incorporated radioactivity was quantitated utilizing a Wallace 1450 Microbetaplus liquid scintillation counter.
(§1) Control groups were not treated with the enzyme. The virus was then titrated on macrophage/monocyte cultures and incubated at 37° C. for 48 hours at which time the macrophages and monocytes were washed 3×, resuspended and placed in fresh wells. Naïve PBMC's were overlayed on the macrophage/monocyte cultures and incubated at 37° C. for 72 hours. The PBMC's were then separated, washed and placed in fresh wells with fresh medium and rested for 48 hours. After a 48 hour rest period, the PBMC's were challenged with HIV-1 with and without PHA, I1-2, or both. […] These various assays are presented below in Table 10 .

ROJO (low passage HIV-1) = experiment: Study 4 sensitization, Turpin and standard macrophages: RT activity after Rojo challenge; format: cell-based; conditions: Rojo Sensitized
Method: (§2) Percent virus control (% VC) in the following tables is the mean RT activity (cpm) as a percentage of a virus control. Percent cell control (% CC) is the mean XTT absorbance as a percentage of a cell control.
(§3) The macrophage plates were then washed with HBSS multiple times. Fresh mixed pha blast PBMCs (5×10e4/well) were placed on the macrophage cells, allowed to incubate for 72 hours and then harvested and reset in a fresh 96 well plate. The PBMCs were then challenged overnight with the respective virus (IIIB or Rojo) at a standard MOI for that virus. The PBMCs were 5× in plate spin washed with DPBS, incubated 24 hours, at which time 5×10e4 fresh pha blast PBMCs/well were added. The culture was incubated an additional 6 days and then assayed for RT activity.
(§4) Where viability corrections were conducted, they were performed by dividing the RT CPM value by the toxicity absorbance in order to compensate for well to well variations noted in the cell titer toxicity noted.

PBMCs = experiment: Study 4 sensitization: cell viability; format: cell-based, human
Method: as §2, §3, §4

HIV-1 [2] = experiment: Study 5 overall: resistance of naive PBMCs to HIV-1 challenge (RT activity and P-24 assay); format: cell-based; conditions: monocytes and macrophages incubated with hyaluronidase treated heat inactivated or Aldrathiol-2 treated virus
Method: as §1

## Hyaluronidase
HIV-1 [1]; Assay #1, 5 mg/mL
  % Control: 97.3%
  Mean RT: 20882.7 cpm
HIV-1 [1]; Assay #1, 10 mg/mL
  % Control: 27.9%
  Mean RT: 6000 cpm
HIV-1 [1]; Assay #1, 20 mg/mL
  % Control: 16.9%
  Mean RT: 3635.7 cpm
HIV-1 [1]; Assay #1
  % Control, Sum: 142.1%
  Mean RT, Sum: 30518.4 cpm
HIV-1 [1]; Assay #2, 5 mg/mL
  % Control: 20.6%
  Mean RT: 6548.3 cpm
HIV-1 [1]; Assay #2, 10 mg/mL
  % Control: 26.4%
  Mean RT: 8391.3 cpm
HIV-1 [1]; Assay #2, 20 mg/mL
  % Control: 10.4%
  Mean RT: 3298.3 cpm
HIV-1 [1]; Assay #2
  % Control, Sum: 57.4%
  Mean RT, Sum: 18237.9 cpm
HIV-1 [1]; Assay #3, 5 mg/mL
  % Control: 42.7%
  Mean RT: 5641.7 cpm
HIV-1 [1]; Assay #3, 10 mg/mL
  % Control: 91.2%
  Mean RT: 12058 cpm
HIV-1 [1]; Assay #3, 20 mg/mL
  % Control: 90.3%
  Mean RT: 11940.7 cpm
HIV-1 [1]; Assay #3
  % Control, Sum: 224.2%
  Mean RT, Sum: 29640.4 cpm
HIV-1 [1]; Assay #4, 5 mg/mL
  % Control: 1.9%
  Mean RT: 247.3 cpm
HIV-1 [1]; Assay #4, 10 mg/mL
  % Control: 22.4%
  Mean RT: 2973.7 cpm
HIV-1 [1]; Assay #4, 20 mg/mL
  % Control: 29.9%
  Mean RT: 3961.7 cpm
HIV-1 [1]; Assay #4
  % Control, Sum: 54.2%
  Mean RT, Sum: 7182.7 cpm
HIV-1 [1]; Assay #9, 5 mg/mL
  % Control: 137.4%
  Mean RT: 11038 cpm
HIV-1 [1]; Assay #9, 10 mg/mL
  % Control: 128.8%
  Mean RT: 10344 cpm
HIV-1 [1]; Assay #9, 20 mg/mL
  % Control: 96.2%
  Mean RT: 7725.7 cpm
HIV-1 [1]; Assay #9
  % Control, Sum: 362.4%
  Mean RT, Sum: 29107.7 cpm
HIV-1 [1]; Assay #10, 5 mg/mL
  % Control: 230.8%
  Mean RT: 13715.3 cpm
HIV-1 [1]; Assay #10, 10 mg/mL
  % Control: 122.2%
  Mean RT: 7258.7 cpm
HIV-1 [1]; Assay #10, 20 mg/mL
  % Control: 61.1%
  Mean RT: 3633.7 cpm
HIV-1 [1]; Assay #10
  % Control, Sum: 414.1%
  Mean RT, Sum: 24607.7 cpm
HIV-1 [1]; Assay #11, 5 mg/mL
  % Control: 63.2%
  Mean RT: 17826.3 cpm
HIV-1 [1]; Assay #11, 10 mg/mL
  % Control: 75.3%
  Mean RT: 21230 cpm
HIV-1 [1]; Assay #11, 20 mg/mL
  % Control: 30.1%
  Mean RT: 8496.3 cpm
HIV-1 [1]; Assay #11
  % Control, Sum: 168.6%
  Mean RT, Sum: 47552.6 cpm
HIV-1 [1]; Assay #12, 5 mg/mL
  % Control: 118.3%
  Mean RT: 17657 cpm
HIV-1 [1]; Assay #12, 10 mg/mL
  % Control: 39.8%
  Mean RT: 5946.7 cpm
HIV-1 [1]; Assay #12, 20 mg/mL
  % Control: 56.1%
  Mean RT: 8382 cpm
HIV-1 [1]; Assay #12
  % Control, Sum: 214.2%
  Mean RT, Sum: 31985.7 cpm
ROJO (low passage HIV-1); 0.390625 μg/mL, Standard
  RT activity % VC: 50.4%
ROJO (low passage HIV-1); 0.390625 μg/mL, Turpin
  RT activity % VC: 69.6%
ROJO (low passage HIV-1); 0.78125 μg/mL, Standard
  RT activity % VC: 59.9%
ROJO (low passage HIV-1); 0.78125 μg/mL, Turpin
  RT activity % VC: 48.6%
ROJO (low passage HIV-1); 1.5625 μg/mL, Turpin
  RT activity % VC: 61.1%
ROJO (low passage HIV-1); 3.125 μg/mL, Standard
  RT activity % VC: 55.8%
ROJO (low passage HIV-1); 3.125 μg/mL, Turpin
  RT activity % VC: 45.6%
ROJO (low passage HIV-1); 6.25 μg/mL, Standard
  RT activity % VC: 57.7%
ROJO (low passage HIV-1); 6.25 μg/mL, Turpin
  RT activity % VC: 39.4%
ROJO (low passage HIV-1); 25 μg/mL, Standard
  RT activity % VC: 21.0%
ROJO (low passage HIV-1); 25 μg/mL, Turpin
  RT activity % VC: 15.5%
ROJO (low passage HIV-1); viability corrected, 0.097656 μg/mL, Standard
  RT activity % VC: 66.0%
ROJO (low passage HIV-1); viability corrected, 0.097656 μg/mL, Turpin
  RT activity % VC: 94.1%
ROJO (low passage HIV-1); viability corrected, 0.390625 μg/mL, Standard
  RT activity % VC: 52.2%
ROJO (low passage HIV-1); viability corrected, 0.78125 μg/mL, Standard
  RT activity % VC: 55.1%
ROJO (low passage HIV-1); viability corrected, 0.78125 μg/mL, Turpin
  RT activity % VC: 56.9%
ROJO (low passage HIV-1); viability corrected, 1.5625 μg/mL, Standard
  RT activity % VC: 57.0%
ROJO (low passage HIV-1); viability corrected, 1.5625 μg/mL, Turpin
  RT activity % VC: 69.1%
ROJO (low passage HIV-1); viability corrected, 3.125 μg/mL, Standard
  RT activity % VC: 53.4%
ROJO (low passage HIV-1); viability corrected, 3.125 μg/mL, Turpin
  RT activity % VC: 55.5%
ROJO (low passage HIV-1); viability corrected, 6.25 μg/mL, Standard
  RT activity % VC: 56.6%
ROJO (low passage HIV-1); viability corrected, 6.25 μg/mL, Turpin
  RT activity % VC: 48.5%
ROJO (low passage HIV-1); viability corrected, 25 μg/mL, Turpin
  RT activity % VC: 25.6%
PBMCs; 0.097656 μg/mL, GP120IIIB Sensitized, Standard
  cell viability % CC: 167.6%
PBMCs; 0.097656 μg/mL, IIIB Sensitized, Standard
  cell viability % CC: 138.2%
PBMCs; 0.390625 μg/mL, GP120IIIB Sensitized, Turpin
  cell viability % CC: 67.6%
PBMCs; 1.5625 μg/mL, GP120IIIB Sensitized, Turpin
  cell viability % CC: 73.4%
PBMCs; 6.25 μg/mL, GP120IIIB Sensitized, Turpin
  cell viability % CC: 73.2%
PBMCs; 6.25 μg/mL, IIIB Sensitized, Standard
  cell viability % CC: 133.5%
PBMCs; 25 μg/mL, Rojo Sensitized, Turpin
  cell viability % CC: 75.0%
PBMCs; Table 9, 0.097656 μg/mL, GP120IIIB Sensitized, Standard
  cell viability % CC: 167.6%
PBMCs; Table 9, 0.097656 μg/mL, IIIB Sensitized, Standard
  cell viability % CC: 138.2%
PBMCs; Table 9, 0.390625 μg/mL, GP120IIIB Sensitized, Turpin
  cell viability % CC: 67.6%
PBMCs; Table 9, 1.5625 μg/mL, GP120IIIB Sensitized, Turpin
  cell viability % CC: 73.4%
PBMCs; Table 9, 6.25 μg/mL, GP120IIIB Sensitized, Turpin
  cell viability % CC: 73.2%
PBMCs; Table 9, 6.25 μg/mL, IIIB Sensitized, Standard
  cell viability % CC: 133.5%
PBMCs; Table 9, 25 μg/mL, Rojo Sensitized, Turpin
  cell viability % CC: 75.0%
HIV-1 [2]
  resistance of naïve PBMC's to HIV-1 challenge: up to 100%
